The conditions of data set [1]: in vivo; cited from earlier work.
Data set [2] in a line: Blood plasma levels of oxytocin after intravaginal administration (Example 1) and AUC calculation. In kind it is in vivo, human. The method, then: The first value is taken before the treatment of intravaginal oxytocin has started.
Blood samples were collected from 20 individuals before and repeatedly after administration of oxytocin during a 90 minute period. […] (FIG. 2).
The amount of oxytocin which is absorbed following intravaginal administration of oxytocin expressed as area under the curve (AUC) can be calculated using the trapezoid method according to standardized pharmacokinetic procedures as the clearance rat for oxytocin (CL) is known (70 L/H).
As oxytocin levels were only measured during a 90 minute period it had to be assumed that the concentration of oxytocin after 2 hours continues to fall according to the half-life of oxytocin.

Data set [3] in a line: Skin penetration in Franz diffusion cells. In kind it is in vitro ADME, pig. The conditions noted are these: for share that has penetrated the skin: of 200 IU (approx. 0.4 mg). On the procedure:
Skin penetration was performed in Franz diffusion cells using dermatomed pig's ear skin (thickness approx. 500 μm and surface area 0.64 cm^2). The receptor volume of each cell was 6 mL and citrate buffer, pH 4.5 was used as receptor media. The temperature was maintained at 32° C. and the stirring speed in the receptor chamber was kept at 300 rpm. Sampling was done in triplicate at 24 hours intervals for 4 days, i.e. 24, 48, 72 and 96 h. 1.5 mL of receptor media was taken and replaced with the same volume of citrate buffer. Immediately after collection the samples were kept at −20° C.
A water solution of oxytocin was prepared in a concentration of 4000 IU/g, which corresponds to ca 6.8 mg/g. The solution was pH adjusted with a 50 mM citrate buffer to 4.0 in order to achieve reasonable chemical stability. The oxytocin solutions were added in excess, ca 1 g, on the donor side of the skin and covered to prevent evaporation.
The samples were thawed just prior analysis by HPLC, method M272-0. The limit of quantification (QL) is 12.5 ng/mL or 1.25 ng injected amount.

A short description of data set [4]: Bioavailability of vaginally administered oxytocin, study OXYPEP002. In kind it is in vivo. The note with it: human; for level at 0.5 h / level at 1 h / level at 2 h: post-dose; for level at 0.5 h: read-out: Average blood oxytocin level, 30 min Visit 2; for level at 1 h: read-out: Average blood oxytocin level, 60 min Visit 2; for level at 2 h: read-out: Average blood oxytocin level, 120 min Visit 2; for AUC(0-t): read-out: AUC0-30 min. The method, then: The objective of the present analysis was to estimate the bioavailability of oxytocin following vaginal administration of 100 (170 μg) or 400 IU (680 μg) oxytocin vaginal gel using data from study OXYPEP002 (Clinical trial protocol OXYPEP002). The oxytocin vaginal gel is Vagitocin® gel.
Data from study OXYPEP002 was used for the analysis. Study OXYPEP002 was conducted with the primary objective to investigate the dose-relationship of topical Vagitocin on the vaginal mucosal membrane (Clinical trial protocol OXYPEP002). OXYPEP002 was a double-blind, randomized, placebo controlled trial, with a parallel group design. Vagitocin (oxytocin gel) in two different doses (100 IU and 400 IU) was administered topically once daily during 7 weeks. A placebo gel with the same composition was used as comparator. In total 64 patients were to be included in the study. At the baseline visit (visit 1), blood sampling for oxytocin analysis were drawn for the first 24 included subjects. This sample represents the true baseline oxytocin observation. For the same 24 subjects, blood sampling for oxytocin analysis were also drawn at visit 2 (2 weeks ±2 days) with sampling pre-dose and at 30 min, 60 min and 120 min post-dose. Only subjects that completed the full sampling schedule were included in the analysis. The calculations were based on average blood oxytocin measurements for each dose level and sampling time point (Table 2).
The systemic oxytocin exposure following vaginally administered oxytocin was assessed by calculating the area under the blood concentration versus time curve (AUC) according to the trapezoidal rule. The data from visit 2 were used where the pre-dose sample was assumed to represent a new baseline observation.
The blood concentration of oxytocin had not returned to the baseline observation at the lasts sampling time point (120 min post-dose).
The endogenous oxytocin level (AUCbaseline) was calculated and subtracted from the total AUC to achieve the oxytocin exposure following the vaginally administered dose (AUCvaginal).
The bioavailability was calculated according to equation 1. As no intravenous dose was administered in study OXYPEP002, AUCiv was calculated according to available information in the literature (De Groot A N et al. 1995, Amico J A et al. 1987, Dawood M Y et al. 1980) according to equation 2.

For data set [5] the following is noted: cited from earlier work.
The mark [6] stands for this setting: six male subjects, intravenous 1 IU (De Groot 1995).

Like-named read-outs stand apart in the source and are kept apart here. Starred links: 1 amine or outer side, 2 acyl side, 3 side chain; linkers in the order of their positions; H or OH if unused. Positions of bridges follow the written chain, without caps; N, C: chain ends. Residues, ends and D or L forms follow the SMILES beside them. X1 = O=C(CCC[*:2])[*:1]

Take `CC[C@H](C)[C@@H]1NC(=O)[C@H](Cc2ccc(OC)cc2)NC(=O)CCCSC[C@@H](C(=O)N2CCC[C@H]2C(=O)N[C@@H](CC(C)C)C(=O)NCC(N)=O)NC(=O)[C@H](CC(N)=O)NC(=O)[C@H](CCC(N)=O)NC1=O` [carbetocin] (Y(Me)IQNCPLG-NH2; linker N-5 via X1): the “half-life relative to oxytocin” value in data set [1] is “about three times longer”.

Consider `CC[C@H](C)[C@@H]1NC(=O)[C@H](Cc2ccc(O)cc2)NC(=O)[C@@H](N)CSSC[C@@H](C(=O)N2CCC[C@H]2C(=O)N[C@@H](CC(C)C)C(=O)NCC(N)=O)NC(=O)[C@H](CC(N)=O)NC(=O)[C@H](CCC(N)=O)NC1=O` [oxytocin, Cys-Tyr-Ile-Gln-Asn-Cys-Pro-Leu-Gly-NH2], for which the “fraction of the given dose absorbed” value in data set [2] (100 IU intravaginal) is recorded as 0.064; in data set [2] (400 IU intravaginal), 0.11. Besides, the “plasma oxytocin levels at 15, 30, 60 and 90 minutes after administration” value in data set [2] (100 and 400 IU intravaginal, FIG. 2) is listed as “elevated in a pulse like fashion”. Besides, the “plasma levels of oxytocin” value in data set [2] (following 100 and 400 IU intravaginal, 90 minute period) is on record as “rose dose dependently”. Further, the “plasma oxytocin value obtained 10 hours after treatment” value in data set [2] (intravaginal, FIG. 2, vs before treatment) is given as “higher than those observed before treatment was started”. Further, the “absorbed via the epithelial membrane into the blood stream” value in data set [2] (topical composition comprising a non-ionic cellulose ether) is recorded as “about 10%”. In addition, the “share that has penetrated the skin” value in data set [3] (after 24 h) is 0.1%; in data set [3] (after 96 h) it was roughly 1%. Also, the “oxytocin penetrated into receptor” value in data set [3] (after 24 h, 4000 IU/g water solution) worked out at 0.6 µg. For the same compound, in data set [3] (after 96 hours, 4000 IU/g citrate buffered water solution, pH 4.0, 32° C.), the “oxytocin detected in the receptor chamber” value turned out to be 4 µg. The AUC in data set [4] (female, blood, 100 IU, 100 IU vaginal, read-out: AUC30-60 min) was 0.0633 ng·h/mL; in data set [4] (female, blood, 100 IU, 100 IU vaginal, read-out: AUC60-120 min) it was 0.11 ng·h/mL; in data set [4] (female, blood, 100 IU, 100 IU vaginal, residual area alternative i, read-out: AUCresidual), 0.346 ng·h/mL; in data set [4] (female, blood, 100 IU, 100 IU vaginal, residual area alternative i, read-out: AUCvaginal), 0.299 ng·h/mL; in data set [4] (female, blood, 100 IU, 100 IU vaginal, residual area alternative ii, read-out: AUCresidual) it was 0.0322 ng·h/mL; in data set [4] (female, blood, 100 IU, 100 IU vaginal, residual area alternative ii, read-out: AUCvaginal), 0.156 ng·h/mL. The AUC came out at 0.362 ng·h/mL in data set [4] (female, blood, 400 IU, 400 IU vaginal, read-out: AUC30-60 min); 0.504 ng·h/mL in data set [4] (female, blood, 400 IU, 400 IU vaginal, read-out: AUC60-120 min); 0.783 ng·h/mL in data set [4] (female, blood, 400 IU, 400 IU vaginal, residual area alternative i, read-out: AUCresidual); 1.53 ng·h/mL in data set [4] (female, blood, 400 IU, 400 IU vaginal, residual area alternative i, read-out: AUCvaginal); 0.193 ng·h/mL in data set [4] (female, blood, 400 IU, 400 IU vaginal, residual area alternative ii, read-out: AUCresidual); 1.1 ng·h/mL in data set [4] (female, blood, 400 IU, 400 IU vaginal, residual area alternative ii, read-out: AUCvaginal). Besides, in data set [4] (in vivo, iv, 1 ug, AUCiv, assumed intravenous dose of 1 μg and a CL of 70 L/h), the AUC came to 0.0143 ng·h/mL. In addition, the bioavailability in data set [4] (female, blood, 100 IU, 100 IU vaginal, residual area alternative i, read-out: Bioavailability) was 12%; in data set [4] (female, blood, 100 IU, 100 IU vaginal, residual area alternative ii, read-out: Bioavailability), 6.4%; in data set [4] (female, blood, 400 IU, 400 IU vaginal, residual area alternative i, read-out: Bioavailability), 16%; in data set [4] (female, blood, 400 IU, 400 IU vaginal, residual area alternative ii, read-out: Bioavailability) it was 11%; in data set [4] (female, blood, vaginal, 100 and 400 IU, read-out: bioavailability, range over both dose levels and alternatives) it was 6.4 to 16%. For the same compound, the level at 0.5 h in data set [4] (female, blood, 100 IU vaginal) was 0.133 ng/mL; in data set [4] (female, blood, 400 IU vaginal), 0.816 ng/mL. In addition, the level at 1 h stood at 0.12 ng/mL in data set [4] (female, blood, 100 IU vaginal) and 0.63 ng/mL in data set [4] (female, blood, 400 IU vaginal). Moreover, the level at 2 h in data set [4] (female, blood, 100 IU vaginal) was found to be 0.099 ng/mL; in data set [4] (female, blood, 400 IU vaginal), 0.378 ng/mL. For the same compound, the AUC(0-t) in data set [4] (female, blood, 100 IU vaginal) is 0.0426 ng·h/mL; in data set [4] (female, blood, 400 IU vaginal), 0.219 ng·h/mL. Also, the CL in data set [5] (healthy male subjects (Amico 1987, Dawood 1980)) was 70 to 90 L/h. For the same compound, the “clearance rate (CL)” value in data set [5] (known value used for AUC calculation) is on record as 70 L/H. For the same compound, the “terminal elimination half-life (t1/2)” value in data set [5] (setting [6]) was 19.8 min. The “volume of distribution (V)” value in data set [5] (setting [6]) is given as 33.2 L. Also, the “total body CL” value in data set [5] (six male subjects, intravenous dose of 1 IU (1.7 μg), two-compartment model (De Groot 1995)) is 67.1 L/h. Moreover, the half-life result in data set [1] is on record as “about 30 min”.
